The subject of data set [1] is Rat. Nature of the data set: concentration in plasma after dosing. Conditions: dosed: Wyeth-14643, 1.0 mg/kg, oral, Male, Sprague-Dawley.
Data set [2] relates to Rat. Nature of the data set: concentration in plasma after dosing. The following applies: dosed: Wyeth-14643, 5.0 mg/kg, oral, Male, Sprague-Dawley.
Data set [3] relates to Rat. The data set can be described thus: concentration in liver after dosing. Conditions: 40 min; dosed: Bis 2-Chloroethoxy Methane; 20 mg/kg; iv; Female; F344.
Data set [4] deals with Rat. Nature of the data set: concentration in heart after dosing. Conditions: 4 h; dosed: Bis 2-Chloroethoxy Methane; 20 mg/kg; iv; Male; F344.
For data set [5], the system named is Rat. The data set can be described thus: concentration in heart after dosing. Conditions: 5 h; dosed: Bis 2-Chloroethoxy Methane; 20 mg/kg; iv; Female; F344.
Data set [6] has as its system Rat. The data set can be described thus: concentration in plasma after dosing. Conditions: 20 min; dosed: Bis 2-Chloroethoxy Methane; 20 mg/kg; iv; Male; F344.
Data set [7] relates to Rat. Nature of the data set: concentration in thymus after dosing. Conditions: 1 h; dosed: Bis 2-Chloroethoxy Methane; 20 mg/kg; iv; Male; F344.
Data set [8] has as its system Rat. Nature of the data set: concentration in plasma after dosing. Conditions: 10 min; dosed: Bis 2-Chloroethoxy Methane; 20 mg/kg; iv; Male; F344.
Data set [9] relates to Rat. The data set can be described thus: concentration in thymus after dosing. Conditions: 10 min; dosed: Bis 2-Chloroethoxy Methane; 20 mg/kg; iv; Female; F344.
Data set [10] relates to Rat. Nature of the data set: concentration in thymus after dosing. Conditions: 20 min; dosed: Bis 2-Chloroethoxy Methane; 20 mg/kg; iv; Male; F344.
Data set [11] concerns Rat. The data set can be described thus: concentration in plasma after dosing. The following applies: 2 h; dosed: Bis 2-Chloroethoxy Methane; 40 mg/kg; iv; Male; Harlan Sprague Dawley.
The test system of data set [12] is Rat. The data set can be described thus: concentration in liver after dosing. Conditions: 3 h; dosed: Fluorotelomer alcohol 8+2; 24 mg/kg; oral; Male; Harlan Sprague Dawley.
For data set [13], the system named is Rat. The data set can be described thus: concentration in kidney after dosing. The following applies: 3 h; dosed: Fluorotelomer alcohol 8+2; 24 mg/kg; oral; Male; Harlan Sprague Dawley.
Data set [14] relates to Rat. Nature of the data set: concentration in plasma after dosing. The following applies: dosed: Fluorotelomer alcohol 8+2, 40 mg/kg, iv, Female, Harlan Sprague-Dawley.
The test system of data set [15] is Rat. Nature of the data set: concentration in plasma after dosing. Conditions: dosed: Fluorotelomer alcohol 8+2, 40 mg/kg, iv, Male, F344.
In data set [16] the test system is Rat. The data set can be described thus: concentration in plasma after dosing. The following applies: 2 h; dosed: Di-n-butyl phthalate; 20 mg/kg; iv; Male; Sprague-Dawley.
For data set [17], the system named is Rat. The data set can be described thus: concentration in plasma after dosing. Conditions: 15 h; dosed: Di-n-butyl phthalate; 50 mg/kg; oral; Male; Sprague-Dawley.
Data set [18] relates to Rat. The data set can be described thus: concentration in liver after dosing. Conditions: 1 h; dosed: Perfluorodecanoic acid; 10 mg/kg; oral; Male; Harlan Sprague Dawley.
In data set [19] the test system is Rat. The data set can be described thus: concentration in kidney after dosing. Conditions: 1848 h; dosed: Perfluorodecanoic acid; 10 mg/kg; oral; Male; Harlan Sprague Dawley.
The subject of data set [20] is Rat. The data set can be described thus: concentration in plasma after dosing. Conditions: dosed: Perfluorodecanoic acid, 2 mg/kg, oral, Male, Harlan Sprague Dawley.
Data set [21] has as its system Rat. The data set can be described thus: concentration in plasma after dosing. Conditions: dosed: Perfluorodecanoic acid, 2 mg/kg, iv, Male, F344.
Data set [22] relates to Rat. Nature of the data set: concentration in plasma after dosing. The following applies: 6 h; dosed: Primidone; 30 mg/kg; oral; Female; F344.
Data set [23] deals with Rat. Nature of the data set: concentration in plasma after dosing. The following applies: 1.5 h; dosed: Primidone; 30 mg/kg; oral; Male; F344.
The test system of data set [24] is Rat. The data set can be described thus: concentration in plasma after dosing. The following applies: 6 h; dosed: Primidone; 80 mg/kg; oral; Female; F344.
Data set [25] deals with Rat. The data set can be described thus: concentration in liver after dosing. Conditions: 8 h; dosed: Thiodiglycolic Acid; 20 mg/kg; iv; Female; Harlan Sprague Dawley.
The test system of data set [26] is Rat. Nature of the data set: concentration in liver after dosing. Conditions: 2 h; dosed: Thiodiglycolic Acid; 20 mg/kg; iv; Female; Harlan Sprague Dawley.
Data set [27] has as its system Rat. Nature of the data set: concentration in liver after dosing. Conditions: 1 h; dosed: Thiodiglycolic Acid; 20 mg/kg; iv; Male; Harlan Sprague Dawley.
In data set [28] the test system is Rat. Nature of the data set: concentration in liver after dosing. The following applies: 10 min; dosed: Thiodiglycolic Acid; 20 mg/kg; iv; Female; Harlan Sprague Dawley.
Data set [29] concerns Rat. Nature of the data set: concentration in thymus after dosing. The following applies: 5.333 h; dosed: Thiodiglycolic Acid; 20 mg/kg; iv; Female; Harlan Sprague Dawley.
For data set [30], the system named is Rat. The data set can be described thus: concentration in plasma after dosing. The following applies: 40 min; dosed: Thiodiglycolic Acid; 20 mg/kg; iv; Female; Harlan Sprague Dawley.
Data set [31] has as its system Rat. Nature of the data set: concentration in thymus after dosing. The following applies: 8 h; dosed: Thiodiglycolic Acid; 20 mg/kg; iv; Female; Harlan Sprague Dawley.
The test system of data set [32] is Rat. The data set can be described thus: concentration in thymus after dosing. The following applies: 3 h; dosed: Thiodiglycolic Acid; 20 mg/kg; iv; Female; Harlan Sprague Dawley.
Data set [33] relates to Rat. Nature of the data set: concentration in plasma after dosing. The following applies: 2 h; dosed: Thiodiglycolic Acid; 20 mg/kg; iv; Male; Harlan Sprague Dawley.
Data set [34] deals with Rat. Nature of the data set: concentration in thymus after dosing. Conditions: 40 min; dosed: Thiodiglycolic Acid; 20 mg/kg; iv; Female; Harlan Sprague Dawley.
Data set [35] relates to Rat. The data set can be described thus: concentration in thymus after dosing. The following applies: 6.667 h; dosed: Thiodiglycolic Acid; 20 mg/kg; iv; Female; Harlan Sprague Dawley.
The subject of data set [36] is Rat. The data set can be described thus: concentration in plasma after dosing. The following applies: 40 min; dosed: Thiodiglycolic Acid; 20 mg/kg; iv; Male; Harlan Sprague Dawley.
Data set [37] relates to Rat. The data set can be described thus: concentration in plasma after dosing. Conditions: dosed: dichloroacetic acid, 100 mg/kg, oral, Male, F344.
In data set [38] the test system is Rat. The data set can be described thus: concentration in plasma after dosing. The following applies: dosed: dichloroacetic acid, 10 mg/kg, oral, Male, Harlan Sprague Dawley.

As to `Cc1cccc(Nc2cc(Cl)nc(SCC(=O)O)n2)c1C`, the concentration in plasma was 709 ng/mL in the data set with Rat [1] (2 h), 189 ng/mL in the data set with Rat [1] (8 h), 1920 ng/mL in the data set on Rat [2] (2 h) and 999 ng/mL with Rat [2] (6 h).

For the compound `ClCCOCOCCCl` [Bis 2-Chloroethoxy Methane], the concentration in liver in the data set on Rat [3] came out at 734 ng/g. For the same compound, the concentration in heart in the data set with Rat [4] is 112 ng/g; with Rat [5], 33 ng/g. The concentration in plasma came to 3180 ng/mL in the data set on Rat [6], 11000 ng/mL in the data set with Rat [8] and 840 ng/mL in the data set on Rat [11]. Besides, the values for the concentration in thymus with Rat [7], with Rat [9] and in the data set on Rat [10] were 7380 ng/g, 50600 ng/g and 26300 ng/g, respectively.

For `OCCC(F)(F)C(F)(F)C(F)(F)C(F)(F)C(F)(F)C(F)(F)C(F)(F)C(F)(F)F` [Fluorotelomer alcohol 8+2], the concentration in liver in the data set with Rat [12] amounted to 2220 ng/g. Moreover, the concentration in kidney with Rat [13] is 631 ng/g. The concentration in plasma in the data set with Rat [14] (1 h) was found to be 3650 ng/mL; with Rat [14] (24 h), 26.8 ng/mL; in the data set on Rat [15] (5 min) it was 23200 ng/mL; in the data set with Rat [15] (3 h), 505 ng/mL.

On to `CCCCOC(=O)c1ccccc1C(=O)O` [Mono-n-butyl phthalate], for which the concentration in plasma in the data set on Rat [16] turned out to be 1670 ng/mL; in the data set with Rat [17] it was 530 ng/mL.

In turn, `O=C(O)C(F)(F)C(F)(F)C(F)(F)C(F)(F)C(F)(F)C(F)(F)C(F)(F)C(F)(F)C(F)(F)F` [Perfluorodecanoic acid] yielded a concentration in liver in the data set with Rat [18] of 58100 ng/g. In addition, the concentration in kidney in the data set with Rat [19] was determined as 4700 ng/g. For the same compound, the concentration in plasma was 4920 ng/mL in the data set with Rat [20] (1 h); 5100 ng/mL in the data set with Rat [20] (192 h); 882 ng/mL in the data set on Rat [20] (2520 h); 7130 ng/mL in the data set with Rat [21] (5 min); 3040 ng/mL with Rat [21] (192 h).

On to `CCC1(c2ccccc2)C(=O)NC(=O)NC1=O` [Phenobarbital], for which the values for the concentration in plasma with Rat [22], in the data set with Rat [23] and with Rat [24] were 990 ng/mL, 1940 ng/mL and 1820 ng/mL, respectively.

Regarding `O=C(O)CSCC(=O)O` [Thiodiglycolic Acid], the concentration in liver in the data set with Rat [25] was 737 ng/g; in the data set with Rat [26], 39600 ng/g; in the data set on Rat [27], 162000 ng/g; with Rat [28] it was 70700 ng/g. Moreover, the concentration in thymus is 372 ng/g in the data set on Rat [29]; 395 ng/g in the data set with Rat [31]; 2120 ng/g in the data set on Rat [32]; 3380 ng/g with Rat [34]; 263 ng/g in the data set on Rat [35]. For the same compound, the values for the concentration in plasma in the data set on Rat [30], in the data set with Rat [33] and in the data set on Rat [36] were 4120 ng/mL, 790 ng/mL and 2000 ng/mL, respectively.

With `O=C(O)C(Cl)Cl` [dichloroacetic acid], the concentration in plasma with Rat [37] (2 min) stood at 2970 ng/mL; in the data set on Rat [37] (1.25 h) it was 54200 ng/mL; in the data set with Rat [38] (2 min), 405 ng/mL; in the data set on Rat [38] (0.5 h) it was 274 ng/mL.
